The values below are quoted from earlier work in US20140039057A1, “Compositions” (Reckitt Benckiser Healthcare (UK) Limited, priority 2008, published 2014).

For the data set the following is noted: phase II and phase III clinical studies.

In the case of `CC(C(=O)O)c1ccc(-c2ccccc2)c(F)c1` (stereo not shown) [Flurbiprofen], the “efficacy in the treatment of sore throat” value is on record as “efficacious”.
